According to PubChem BioAssay (NCI):
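The compound was tested at five concentrations on cells cultured in 96-well plates, with a 48-hour exposure period. TGI denotes the concentration required for complete inhibition of growth.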

Columns and labels:
Experiment in all cases: NCI anticancer screen, dose series, 48 h
HCT-116 colon = tested on: HCT-116 colon
DLD-1 colon = tested on: DLD-1 colon
HOP-62 NSCLC = tested on: HOP-62 NSCLC
XF 498 CNS = tested on: XF 498 CNS
NCI-H226 lung = tested on: NCI-H226 lung
RXF 393 renal = tested on: RXF 393 renal
NCI-H522 lung = tested on: NCI-H522 lung
CCRF-CEM leukemia = tested on: CCRF-CEM leukemia
HT29 colon = tested on: HT29 colon
M19-MEL melanoma = tested on: M19-MEL melanoma
SK-MEL-28 melanoma = tested on: SK-MEL-28 melanoma
KM12 colon = tested on: KM12 colon
UACC-62 melanoma = tested on: UACC-62 melanoma
DMS 273 small cell lung = tested on: DMS 273 small cell lung
SNB-78 CNS = tested on: SNB-78 CNS
SK-MEL-2 melanoma = tested on: SK-MEL-2 melanoma
A549 NSCLC = tested on: A549 NSCLC
SF-539 CNS = tested on: SF-539 CNS
UO-31 renal = tested on: UO-31 renal
U251 CNS = tested on: U251 CNS
HOP-18 NSCLC = tested on: HOP-18 NSCLC
HCC-2998 colon = tested on: HCC-2998 colon
SF-268 CNS = tested on: SF-268 CNS
786-0 renal = tested on: 786-0 renal
SK-OV-3 ovarian = tested on: SK-OV-3 ovarian
DMS 114 small cell lung = tested on: DMS 114 small cell lung
UACC-257 melanoma = tested on: UACC-257 melanoma
SF-295 CNS = tested on: SF-295 CNS
SNB-19 CNS = tested on: SNB-19 CNS
SN12C renal = tested on: SN12C renal
LXFL 529 NSCLC = tested on: LXFL 529 NSCLC
KM20L2 colon = tested on: KM20L2 colon
A498 renal = tested on: A498 renal
M14 melanoma = tested on: M14 melanoma
SW-620 colon = tested on: SW-620 colon
OVCAR-8 ovarian = tested on: OVCAR-8 ovarian
HL-60(TB) leukemia = tested on: HL-60(TB) leukemia
MOLT-4 leukemia = tested on: MOLT-4 leukemia
HOP-92 NSCLC = tested on: HOP-92 NSCLC
SK-MEL-5 melanoma = tested on: SK-MEL-5 melanoma
SR leukemia = tested on: SR leukemia
TK-10 renal = tested on: TK-10 renal
MALME-3M melanoma = tested on: MALME-3M melanoma
RPMI-8226 leukemia = tested on: RPMI-8226 leukemia
LOX IMVI melanoma = tested on: LOX IMVI melanoma
OVCAR-3 ovarian = tested on: OVCAR-3 ovarian
SNB-75 CNS = tested on: SNB-75 CNS
NCI-H23 lung = tested on: NCI-H23 lung
K-562 leukemia = tested on: K-562 leukemia
OVCAR-5 ovarian = tested on: OVCAR-5 ovarian
CAKI-1 renal = tested on: CAKI-1 renal
EKVX NSCLC = tested on: EKVX NSCLC
ACHN renal = tested on: ACHN renal
HCT-15 colon = tested on: HCT-15 colon
IGROV1 ovarian = tested on: IGROV1 ovarian
COLO 205 colon = tested on: COLO 205 colon
NCI-H460 lung = tested on: NCI-H460 lung
OVCAR-4 ovarian = tested on: OVCAR-4 ovarian
DU-145 prostate = tested on: DU-145 prostate
NCI/ADR-RES ovarian = tested on: NCI/ADR-RES ovarian
MDA-MB-435 = tested on: MDA-MB-435
HS 578T breast = tested on: HS 578T breast
MDA-N = tested on: MDA-N
MCF7 breast = tested on: MCF7 breast
MDA-MB-231 breast = tested on: MDA-MB-231 breast
PC-3 prostate = tested on: PC-3 prostate
T-47D breast = tested on: T-47D breast
BT-549 breast = tested on: BT-549 breast

COc1c(C)c2c(c3c1c(=O)c1ccccc1n3C)C=CC(C)(C)O2
TGI (HCT-116 colon): 44.8 µM | TGI (DLD-1 colon): > 100 µM | TGI (HOP-62 NSCLC): 85.8 µM | TGI (XF 498 CNS): 55.7 µM | TGI (NCI-H226 lung): > 100 µM | TGI (RXF 393 renal): > 100 µM | TGI (NCI-H522 lung): 67.3 µM | TGI (CCRF-CEM leukemia): 83.9 µM | TGI (HT29 colon): 81.5 µM | TGI (M19-MEL melanoma): 82.4 µM | TGI (SK-MEL-28 melanoma): 55.1 µM | TGI (KM12 colon): 60.9 µM | TGI (UACC-62 melanoma): 33.4 µM | TGI (DMS 273 small cell lung): 38 µM | TGI (SNB-78 CNS): 72.9 µM | TGI (SK-MEL-2 melanoma): 48.3 µM | TGI (A549 NSCLC): 26.7 µM | TGI (SF-539 CNS): 44.9 µM | TGI (UO-31 renal): 66 µM | TGI (U251 CNS): 53.8 µM | TGI (HOP-18 NSCLC): 97.8 µM | TGI (HCC-2998 colon): 95.6 µM | TGI (SF-268 CNS): 91.4 µM | TGI (786-0 renal): 69.8 µM | TGI (SK-OV-3 ovarian): 43.1 µM | TGI (DMS 114 small cell lung): 43 µM | TGI (UACC-257 melanoma): 76.6 µM | TGI (SF-295 CNS): 45.8 µM | TGI (SNB-19 CNS): > 100 µM | TGI (SN12C renal): > 100 µM | TGI (LXFL 529 NSCLC): 94.4 µM | TGI (KM20L2 colon): > 100 µM | TGI (A498 renal): 73.4 µM | TGI (M14 melanoma): 37.9 µM | TGI (SW-620 colon): > 100 µM | TGI (OVCAR-8 ovarian): 91.5 µM | TGI (HL-60(TB) leukemia): 30.2 µM | TGI (MOLT-4 leukemia): 67.8 µM | TGI (HOP-92 NSCLC): 88.8 µM | TGI (SK-MEL-5 melanoma): 31.1 µM | TGI (SR leukemia): 58.6 µM | TGI (TK-10 renal): > 100 µM | TGI (MALME-3M melanoma): 56.7 µM | TGI (RPMI-8226 leukemia): 76.8 µM | TGI (LOX IMVI melanoma): 32.9 µM | TGI (OVCAR-3 ovarian): 41 µM | TGI (SNB-75 CNS): 62.8 µM | TGI (NCI-H23 lung): > 100 µM | TGI (K-562 leukemia): 66 µM | TGI (OVCAR-5 ovarian): 87.6 µM | TGI (CAKI-1 renal): 82.9 µM | TGI (EKVX NSCLC): > 100 µM | TGI (ACHN renal): 56.3 µM | TGI (HCT-15 colon): > 100 µM | TGI (IGROV1 ovarian): > 100 µM | TGI (COLO 205 colon): 99.1 µM | TGI (NCI-H460 lung): 62 µM

O=C(O)C1=C(C(=O)Nc2ccccc2)C2C=CC1C2 (stereo not drawn)
TGI (HCT-116 colon): > 100 µM | TGI (DLD-1 colon): > 100 µM | TGI (HOP-62 NSCLC): > 100 µM | TGI (XF 498 CNS): > 100 µM | TGI (RXF 393 renal): > 100 µM | TGI (CCRF-CEM leukemia): > 100 µM | TGI (HT29 colon): > 100 µM | TGI (M19-MEL melanoma): > 100 µM | TGI (SK-MEL-28 melanoma): > 100 µM | TGI (KM12 colon): > 100 µM | TGI (UACC-62 melanoma): > 100 µM | TGI (DMS 273 small cell lung): > 100 µM | TGI (SNB-78 CNS): > 100 µM | TGI (A549 NSCLC): > 100 µM | TGI (SF-539 CNS): > 100 µM | TGI (UO-31 renal): > 100 µM | TGI (U251 CNS): > 100 µM | TGI (HOP-18 NSCLC): > 100 µM | TGI (HCC-2998 colon): > 100 µM | TGI (SF-268 CNS): > 100 µM | TGI (786-0 renal): > 100 µM | TGI (SK-OV-3 ovarian): > 100 µM | TGI (DMS 114 small cell lung): > 100 µM | TGI (UACC-257 melanoma): > 100 µM | TGI (SF-295 CNS): > 100 µM | TGI (SNB-19 CNS): > 100 µM | TGI (SN12C renal): > 100 µM | TGI (LXFL 529 NSCLC): > 100 µM | TGI (OVCAR-4 ovarian): > 100 µM | TGI (KM20L2 colon): > 100 µM | TGI (A498 renal): > 100 µM | TGI (M14 melanoma): > 100 µM | TGI (SW-620 colon): > 100 µM | TGI (OVCAR-8 ovarian): > 100 µM | TGI (HL-60(TB) leukemia): > 100 µM | TGI (MOLT-4 leukemia): > 100 µM | TGI (HOP-92 NSCLC): > 100 µM | TGI (SK-MEL-5 melanoma): > 100 µM | TGI (SR leukemia): > 100 µM | TGI (TK-10 renal): > 100 µM | TGI (MALME-3M melanoma): > 100 µM | TGI (RPMI-8226 leukemia): > 100 µM | TGI (LOX IMVI melanoma): > 100 µM | TGI (OVCAR-3 ovarian): > 100 µM | TGI (SNB-75 CNS): > 100 µM | TGI (NCI-H23 lung): > 100 µM | TGI (K-562 leukemia): > 100 µM | TGI (OVCAR-5 ovarian): > 100 µM | TGI (EKVX NSCLC): > 100 µM | TGI (ACHN renal): > 100 µM | TGI (HCT-15 colon): > 100 µM | TGI (IGROV1 ovarian): > 100 µM | TGI (COLO 205 colon): > 100 µM | TGI (NCI-H460 lung): > 100 µM

O=C1OC2C(O)COC2(O)C1(O)C(C[N+](=O)[O-])c1ccc(Cl)cc1 (stereo not drawn)
TGI (HCT-116 colon): 3.34 µM | TGI (DU-145 prostate): 34.2 µM | TGI (DLD-1 colon): 3.93 µM | TGI (HOP-62 NSCLC): 40 µM | TGI (NCI-H226 lung): 26.6 µM | TGI (NCI/ADR-RES ovarian): 72 µM | TGI (MDA-MB-435): 4.59 µM | TGI (RXF 393 renal): 9.21 µM | TGI (NCI-H522 lung): 23.7 µM | TGI (CCRF-CEM leukemia): 24.1 µM | TGI (HT29 colon): 6.11 µM | TGI (M19-MEL melanoma): 6.84 µM | TGI (SK-MEL-28 melanoma): 10.8 µM | TGI (HS 578T breast): > 52.9 µM | TGI (KM12 colon): 18.3 µM | TGI (UACC-62 melanoma): 22.8 µM | TGI (DMS 273 small cell lung): 9.87 µM | TGI (SNB-78 CNS): 71.6 µM | TGI (SK-MEL-2 melanoma): 35.8 µM | TGI (A549 NSCLC): 37.1 µM | TGI (SF-539 CNS): 14 µM | TGI (UO-31 renal): 22.7 µM | TGI (U251 CNS): 25.5 µM | TGI (HOP-18 NSCLC): 21.6 µM | TGI (HCC-2998 colon): 13.4 µM | TGI (SF-268 CNS): 31.3 µM | TGI (786-0 renal): 3.45 µM | TGI (SK-OV-3 ovarian): 31 µM | TGI (DMS 114 small cell lung): 9.99 µM | TGI (UACC-257 melanoma): 17.4 µM | TGI (SF-295 CNS): 27.9 µM | TGI (SNB-19 CNS): 28.9 µM | TGI (SN12C renal): 37.9 µM | TGI (LXFL 529 NSCLC): 4.07 µM | TGI (OVCAR-4 ovarian): 19.4 µM | TGI (KM20L2 colon): 6.17 µM | TGI (A498 renal): 12.3 µM | TGI (M14 melanoma): 13.6 µM | TGI (SW-620 colon): 14.1 µM | TGI (OVCAR-8 ovarian): 51.1 µM | TGI (HL-60(TB) leukemia): 10.5 µM | TGI (MOLT-4 leukemia): 10.9 µM | TGI (HOP-92 NSCLC): 54.2 µM | TGI (SK-MEL-5 melanoma): 21.6 µM | TGI (MDA-N): 6.98 µM | TGI (MCF7 breast): 5 µM | TGI (SR leukemia): 19.6 µM | TGI (MDA-MB-231 breast): 48.7 µM | TGI (TK-10 renal): 25.9 µM | TGI (PC-3 prostate): 34.3 µM | TGI (MALME-3M melanoma): 30.3 µM | TGI (RPMI-8226 leukemia): 4.67 µM | TGI (LOX IMVI melanoma): 7.35 µM | TGI (OVCAR-3 ovarian): 21.5 µM | TGI (SNB-75 CNS): 20.1 µM | TGI (NCI-H23 lung): 18.6 µM | TGI (K-562 leukemia): 22.4 µM | TGI (OVCAR-5 ovarian): 32.6 µM | TGI (CAKI-1 renal): 30.1 µM | TGI (EKVX NSCLC): 51.4 µM | TGI (ACHN renal): 26.7 µM | TGI (T-47D breast): 43.2 µM | TGI (HCT-15 colon): 16.7 µM | TGI (IGROV1 ovarian): 21.9 µM | TGI (COLO 205 colon): 12.8 µM | TGI (BT-549 breast): 13.1 µM | TGI (NCI-H460 lung): 34.7 µM
